Source: article PMC4505863 (ACS Chemical Neuroscience, 2014)

Columns and labels:
[1] = molecular target: T1, 5-HT2A receptor (Homo sapiens, UniProt P28223); experiment: h5-HT2A affinity, antagonist radioligand [3H]ketanserin; format: binding
[2] = molecular target: T1, 5-HT2A receptor; experiment: h5-HT2A affinity, agonist radioligand [125I]DOI; format: binding
[3] = molecular target: T2, human 5-HT2C receptor (Homo sapiens, UniProt P28335); experiment: h5-HT2C affinity, antagonist radioligand [3H]mesulergine; format: binding
T2 sequence (P28335 33-458): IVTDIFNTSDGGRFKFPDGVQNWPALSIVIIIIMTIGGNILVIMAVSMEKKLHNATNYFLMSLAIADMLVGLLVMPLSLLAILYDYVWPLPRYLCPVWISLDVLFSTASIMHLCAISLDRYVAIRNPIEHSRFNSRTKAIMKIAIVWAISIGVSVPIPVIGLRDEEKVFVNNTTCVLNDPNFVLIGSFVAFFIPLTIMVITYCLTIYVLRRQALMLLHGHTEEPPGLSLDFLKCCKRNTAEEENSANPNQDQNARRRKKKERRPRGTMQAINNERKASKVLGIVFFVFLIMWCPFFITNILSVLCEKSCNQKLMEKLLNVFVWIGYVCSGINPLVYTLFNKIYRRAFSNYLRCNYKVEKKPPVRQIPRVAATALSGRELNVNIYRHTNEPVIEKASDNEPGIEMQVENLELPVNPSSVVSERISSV

[4] = molecular target: T2, human 5-HT2C receptor; experiment: h5-HT2C affinity, agonist radioligand [125I]DOI; format: binding
[5] = molecular target: 5-HT2B (Homo sapiens, UniProt P41595); experiment: PDSP screening affinity 5-HT2B; format: binding
Chain of 5-HT2B (P41595 whole entry): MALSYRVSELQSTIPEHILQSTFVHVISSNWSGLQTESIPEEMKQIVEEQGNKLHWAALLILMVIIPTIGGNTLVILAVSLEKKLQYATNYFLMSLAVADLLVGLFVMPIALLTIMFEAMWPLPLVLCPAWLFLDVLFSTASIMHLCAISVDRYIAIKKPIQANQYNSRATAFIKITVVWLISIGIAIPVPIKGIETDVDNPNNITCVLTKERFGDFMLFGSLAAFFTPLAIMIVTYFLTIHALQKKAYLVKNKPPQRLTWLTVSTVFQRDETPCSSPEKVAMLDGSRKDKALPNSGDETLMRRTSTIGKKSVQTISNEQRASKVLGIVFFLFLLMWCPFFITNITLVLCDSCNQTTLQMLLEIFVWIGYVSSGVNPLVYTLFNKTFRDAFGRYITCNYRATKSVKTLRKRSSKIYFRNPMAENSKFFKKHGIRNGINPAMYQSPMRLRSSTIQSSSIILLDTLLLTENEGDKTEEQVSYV

[6] = molecular target: T3, 5-HT1A (Homo sapiens, UniProt P08908); experiment: PDSP screening affinity 5-HT1A; format: binding
T3 sequence (P08908 1-422): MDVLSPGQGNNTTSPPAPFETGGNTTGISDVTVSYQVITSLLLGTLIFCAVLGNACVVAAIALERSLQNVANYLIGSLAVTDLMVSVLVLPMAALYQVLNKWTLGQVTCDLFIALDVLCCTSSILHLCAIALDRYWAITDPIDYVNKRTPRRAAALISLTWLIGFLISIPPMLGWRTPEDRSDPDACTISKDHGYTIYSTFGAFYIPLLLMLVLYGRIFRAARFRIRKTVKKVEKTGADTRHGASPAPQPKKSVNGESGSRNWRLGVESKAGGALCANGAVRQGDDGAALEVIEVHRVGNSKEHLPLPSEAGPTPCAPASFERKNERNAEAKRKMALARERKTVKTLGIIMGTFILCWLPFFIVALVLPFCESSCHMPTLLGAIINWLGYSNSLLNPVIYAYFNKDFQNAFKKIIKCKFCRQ

[7] = molecular target: 5-HT1B (Homo sapiens, UniProt P28222); experiment: PDSP screening affinity 5-HT1B; format: binding
Chain of 5-HT1B (P28222 whole entry): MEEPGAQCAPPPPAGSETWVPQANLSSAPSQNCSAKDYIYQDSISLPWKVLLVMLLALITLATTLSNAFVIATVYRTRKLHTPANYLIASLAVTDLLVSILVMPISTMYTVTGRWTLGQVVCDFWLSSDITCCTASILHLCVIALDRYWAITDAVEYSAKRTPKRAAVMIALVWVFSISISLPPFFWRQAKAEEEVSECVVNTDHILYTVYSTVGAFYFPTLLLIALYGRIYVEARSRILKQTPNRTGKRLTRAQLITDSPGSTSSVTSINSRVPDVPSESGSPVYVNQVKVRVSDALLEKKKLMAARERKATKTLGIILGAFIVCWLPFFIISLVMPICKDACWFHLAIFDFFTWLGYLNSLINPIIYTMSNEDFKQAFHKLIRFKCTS

[8] = molecular target: 5-HT1D (Homo sapiens, UniProt P28221); experiment: PDSP screening affinity 5-HT1D; format: binding
Chain of 5-HT1D (P28221 whole entry): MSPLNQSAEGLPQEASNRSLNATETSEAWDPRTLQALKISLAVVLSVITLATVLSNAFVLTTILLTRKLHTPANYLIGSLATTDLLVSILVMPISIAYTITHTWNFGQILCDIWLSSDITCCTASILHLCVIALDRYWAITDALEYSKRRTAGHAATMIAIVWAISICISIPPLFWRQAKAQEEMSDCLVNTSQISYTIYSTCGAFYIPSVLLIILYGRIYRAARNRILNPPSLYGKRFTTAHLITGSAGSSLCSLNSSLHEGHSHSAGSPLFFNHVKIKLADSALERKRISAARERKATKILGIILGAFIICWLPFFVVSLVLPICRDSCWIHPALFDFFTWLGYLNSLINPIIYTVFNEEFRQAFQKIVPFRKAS

[9] = molecular target: 5-ht1e (Homo sapiens, UniProt P28566); experiment: PDSP screening affinity 5-ht1e; format: binding
Chain of 5-ht1e (P28566 whole entry): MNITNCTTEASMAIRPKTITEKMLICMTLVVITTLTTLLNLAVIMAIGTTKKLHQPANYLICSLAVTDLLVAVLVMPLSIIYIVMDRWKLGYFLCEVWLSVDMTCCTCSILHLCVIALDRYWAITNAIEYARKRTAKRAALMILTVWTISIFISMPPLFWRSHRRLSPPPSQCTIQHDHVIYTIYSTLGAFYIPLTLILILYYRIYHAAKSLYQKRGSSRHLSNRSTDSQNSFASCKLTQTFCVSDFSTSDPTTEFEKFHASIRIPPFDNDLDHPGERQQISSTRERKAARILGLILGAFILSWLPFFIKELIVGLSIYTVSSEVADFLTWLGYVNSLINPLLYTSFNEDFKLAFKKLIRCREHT

[10] = molecular target: T4, 5-HT3 (Homo sapiens, UniProt P46098); experiment: PDSP screening affinity 5-HT3; format: binding
T4 sequence (P46098 24-478): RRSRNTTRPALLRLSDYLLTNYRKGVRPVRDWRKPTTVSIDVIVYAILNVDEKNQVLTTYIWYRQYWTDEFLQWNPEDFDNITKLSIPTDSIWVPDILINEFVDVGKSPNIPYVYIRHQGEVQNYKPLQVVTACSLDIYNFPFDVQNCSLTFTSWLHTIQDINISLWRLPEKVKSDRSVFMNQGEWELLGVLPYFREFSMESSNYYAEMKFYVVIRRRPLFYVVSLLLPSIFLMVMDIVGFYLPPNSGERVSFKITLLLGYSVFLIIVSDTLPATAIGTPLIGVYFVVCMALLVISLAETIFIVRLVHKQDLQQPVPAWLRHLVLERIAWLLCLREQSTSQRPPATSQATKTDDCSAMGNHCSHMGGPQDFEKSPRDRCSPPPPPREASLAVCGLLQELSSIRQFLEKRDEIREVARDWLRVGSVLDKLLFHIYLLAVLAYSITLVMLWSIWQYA

[11] = molecular target: 5-ht5a (Homo sapiens, UniProt P47898); experiment: PDSP screening affinity 5-ht5a; format: binding
Chain of 5-ht5a (P47898 whole entry): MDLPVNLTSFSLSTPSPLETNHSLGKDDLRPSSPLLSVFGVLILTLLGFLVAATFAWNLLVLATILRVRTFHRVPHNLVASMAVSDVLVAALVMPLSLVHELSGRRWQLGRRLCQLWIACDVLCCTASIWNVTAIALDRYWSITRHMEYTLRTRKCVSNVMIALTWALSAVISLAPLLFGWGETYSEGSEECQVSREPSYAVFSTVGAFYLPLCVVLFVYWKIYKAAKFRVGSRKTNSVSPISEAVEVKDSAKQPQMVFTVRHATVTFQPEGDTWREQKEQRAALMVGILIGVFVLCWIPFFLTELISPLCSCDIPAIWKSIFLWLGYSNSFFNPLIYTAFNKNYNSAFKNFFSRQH

[12] = molecular target: 5-HT6 (Homo sapiens, UniProt P50406); experiment: PDSP screening affinity 5-HT6; format: binding; conditions: 5-HT6 affinity
Chain of 5-HT6 (P50406 whole entry): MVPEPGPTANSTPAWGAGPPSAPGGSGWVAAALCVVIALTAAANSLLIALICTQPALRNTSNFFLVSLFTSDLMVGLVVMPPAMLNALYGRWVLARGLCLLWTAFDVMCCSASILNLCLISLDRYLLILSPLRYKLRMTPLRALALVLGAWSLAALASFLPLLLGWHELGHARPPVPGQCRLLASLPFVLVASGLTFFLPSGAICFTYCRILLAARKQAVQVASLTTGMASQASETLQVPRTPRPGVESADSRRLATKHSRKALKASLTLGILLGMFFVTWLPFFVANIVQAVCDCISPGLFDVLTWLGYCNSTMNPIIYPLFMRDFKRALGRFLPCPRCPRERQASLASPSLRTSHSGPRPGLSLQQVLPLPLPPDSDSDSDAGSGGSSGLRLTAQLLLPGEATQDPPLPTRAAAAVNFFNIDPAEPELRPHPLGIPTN

[13] = molecular target: 5-HT7 (Homo sapiens, UniProt P34969); experiment: PDSP screening affinity 5-HT7; format: binding
Chain of 5-HT7 (P34969 whole entry): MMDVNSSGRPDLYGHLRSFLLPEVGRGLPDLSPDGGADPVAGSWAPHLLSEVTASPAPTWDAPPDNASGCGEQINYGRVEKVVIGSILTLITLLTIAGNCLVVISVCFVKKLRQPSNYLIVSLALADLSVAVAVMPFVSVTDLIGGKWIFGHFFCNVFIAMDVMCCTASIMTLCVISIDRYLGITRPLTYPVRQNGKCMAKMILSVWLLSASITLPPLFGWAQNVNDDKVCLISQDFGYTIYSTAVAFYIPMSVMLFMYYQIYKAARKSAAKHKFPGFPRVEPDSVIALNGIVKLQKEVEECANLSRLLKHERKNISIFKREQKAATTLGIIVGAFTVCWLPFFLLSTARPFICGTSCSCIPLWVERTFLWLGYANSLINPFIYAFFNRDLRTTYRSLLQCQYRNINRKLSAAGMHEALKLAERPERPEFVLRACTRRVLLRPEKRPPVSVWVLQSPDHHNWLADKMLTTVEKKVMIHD

[14] = molecular target: r5-HT2A (Rattus norvegicus, UniProt P14842); experiment: Ca2+ mobilization assay; format: cell-based; conditions: for Emax: read-out: r5-HT2A Emax, percentage of the maximum response to 5-HT
Chain of r5-HT2A (P14842 whole entry): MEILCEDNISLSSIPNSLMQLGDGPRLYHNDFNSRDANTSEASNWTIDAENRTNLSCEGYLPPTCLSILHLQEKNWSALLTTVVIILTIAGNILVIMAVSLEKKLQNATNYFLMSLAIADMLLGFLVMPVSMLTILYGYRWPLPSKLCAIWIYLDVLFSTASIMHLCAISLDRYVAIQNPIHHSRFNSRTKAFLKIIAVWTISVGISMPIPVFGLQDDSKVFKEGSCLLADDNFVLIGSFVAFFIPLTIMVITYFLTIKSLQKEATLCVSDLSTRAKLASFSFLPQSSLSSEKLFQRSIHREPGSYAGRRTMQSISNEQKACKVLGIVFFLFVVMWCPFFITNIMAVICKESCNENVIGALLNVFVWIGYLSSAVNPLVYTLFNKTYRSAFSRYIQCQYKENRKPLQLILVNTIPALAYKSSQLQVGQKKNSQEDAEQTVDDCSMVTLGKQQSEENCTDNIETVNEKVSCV

[15] = molecular target: h5-HT2A (Homo sapiens, UniProt P28223); experiment: Ca2+ mobilization assay; format: cell-based; conditions: for Emax: HEK293, read-out: h5-HT2A Emax, percentage of the maximum response to 5-HT
Chain of h5-HT2A (P28223 whole entry): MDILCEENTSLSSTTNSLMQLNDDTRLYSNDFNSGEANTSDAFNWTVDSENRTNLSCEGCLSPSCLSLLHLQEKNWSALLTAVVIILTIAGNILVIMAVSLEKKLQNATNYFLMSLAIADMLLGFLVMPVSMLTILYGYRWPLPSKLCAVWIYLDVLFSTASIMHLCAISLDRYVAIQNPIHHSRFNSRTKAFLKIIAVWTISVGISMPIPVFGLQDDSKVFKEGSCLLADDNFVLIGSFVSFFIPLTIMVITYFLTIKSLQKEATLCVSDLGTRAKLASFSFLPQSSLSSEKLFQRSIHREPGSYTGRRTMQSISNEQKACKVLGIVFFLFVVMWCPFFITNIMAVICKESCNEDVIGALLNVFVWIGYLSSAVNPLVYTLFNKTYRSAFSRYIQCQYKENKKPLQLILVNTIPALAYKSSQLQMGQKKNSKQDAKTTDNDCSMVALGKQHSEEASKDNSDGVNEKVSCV

[16] = molecular target: h5-HT2B (Homo sapiens, UniProt P41595); experiment: Ca2+ mobilization assay; format: cell-based; conditions: for Emax: HEK293, read-out: h5-HT2B Emax
Chain of h5-HT2B (P41595 whole entry): as the sequence (P41595 whole entry) above

[17] = molecular target: T5, r5-HT2C (Rattus norvegicus, UniProt P08909); experiment: Ca2+ mobilization assay; format: cell-based; conditions: for Emax: read-out: r5-HT2C Emax
T5 sequence (P08909 33-460): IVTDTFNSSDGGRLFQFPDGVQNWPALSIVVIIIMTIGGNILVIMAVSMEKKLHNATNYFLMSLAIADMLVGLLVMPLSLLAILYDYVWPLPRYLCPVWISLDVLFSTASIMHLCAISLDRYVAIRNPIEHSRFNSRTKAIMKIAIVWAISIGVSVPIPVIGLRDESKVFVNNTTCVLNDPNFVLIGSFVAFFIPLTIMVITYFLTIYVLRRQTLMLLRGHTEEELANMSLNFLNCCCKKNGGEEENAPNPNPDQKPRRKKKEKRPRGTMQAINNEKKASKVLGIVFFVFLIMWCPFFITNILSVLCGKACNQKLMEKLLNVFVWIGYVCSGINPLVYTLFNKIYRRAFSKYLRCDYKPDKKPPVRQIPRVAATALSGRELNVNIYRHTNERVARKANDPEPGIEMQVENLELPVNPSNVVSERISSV

[18] = molecular target: T6, h5-HT2C (Homo sapiens, UniProt P28335); experiment: Ca2+ mobilization assay; format: cell-based; conditions: for Emax: HEK293, read-out: h5HT2C Emax
T6 sequence (P28335 33-458): T2 sequence (P28335 33-458)

[19] = system: Male C57BL/6J mice; experiment: Mouse head twitch response; conditions: for activity in the HTR assay (active / inactive): doses up to 30 mg/kg
[20] = r5-HT2A EC50, Ca2+ mobilization
[21] = h5-HT2B EC50, Ca2+ mobilization
[22] = h5-HT2B pEC50 ± SEM, Ca2+ mobilization, NA = not active, Emax ≤ 15%
[23] = r5-HT2C pEC50 ± SEM, Ca2+ mobilization
[24] = r5-HT2C EC50, Ca2+ mobilization

T1 sequence (P28223 whole entry): as the sequence (P28223 whole entry) above

## COc1cc(CCNCc2cccc(Br)c2)c(OC)cc1I [Compound 4d, N-(3-Bromobenzyl)-2-(4-iodo-2,5-dimethoxyphenyl)ethan-1-amine]
[1]
  Ki: 3.98 nM
[2]
  Ki: 0.57 nM
[3]
  Ki: 7.59 nM
[4]
  Ki: 1.62 nM
[5]; 5-HT2B pKi ± SEM
  Ki: 12.9 nM
[6]; 5-HT1A affinity
  Ki: 670 nM
[7]; 5-HT1B affinity
  Ki: 1570 nM
[8]
  Ki: 162 nM
[9]
  Ki: 792 nM
[10]
  Ki: > 10000 nM
[11]; 5-ht5a affinity
  Ki: 1010 nM
[11]; 5-ht5a pKi ± SEM
  Ki: 1000 nM
[12]
  Ki: 175 nM
[13]; 5-HT7 affinity
  Ki: 355 nM
[14]; percentage of the maximum response to 5-HT
  r5-HT2A Emax: 68.5 ± 0.9%
[14]; [20]
  EC50: 14 nM
[14]; r5-HT2A pEC50 ± SEM, Ca2+ mobilization
  EC50: 15.8 nM
[15]
  EC50: 17 nM
  Emax: 87.5 ± 1.3%
[16]
  Emax: 90 ± 2%
[16]; [21]
  EC50: 85 nM
[16]; [22]
  EC50: 89.1 nM
[17]; [23]
  EC50: 36.3 nM
[17]
  Emax: 101 ± 2%
[18]
  Emax: 74 ± 5%
[19]; SC
  activity in the HTR assay (active / inactive): inactive

## COc1cc(CCNCc2ccc(Br)cc2)c(OC)cc1I [Compound 4e, N-(4-Bromobenzyl)-2-(4-iodo-2,5-dimethoxyphenyl)ethan-1-amine]
[1]
  Ki: 52.5 nM
[2]
  Ki: 3.24 nM
[3]
  Ki: 45.7 nM
[4]
  Ki: 3.31 nM
[5]; 5-HT2B affinity
  Ki: 68 nM
[6]; 5-HT1A affinity
  Ki: 649 nM
[7]; 5-HT1B affinity
  Ki: 5090 nM
[7]; 5-HT1B pKi ± SEM
  Ki: 6030 nM
[8]
  Ki: 311 nM
[9]
  Ki: > 10000 nM
[10]
  Ki: 2460 nM
[11]; 5-ht5a affinity
  Ki: 1850 nM
[12]
  Ki: 350 nM
[13]; 5-HT7 affinity
  Ki: 641 nM
[14]; [20]
  EC50: 150 nM
[14]
  Emax: 67.3 ± 0.9%
[15]
  EC50: 170 nM
  Emax: 88 ± 1.4%
[16]
  Emax: 90 ± 2%
[16]; [21]
  EC50: 610 nM
[17]; [24]
  EC50: 290 nM
[17]
  Emax: 105 ± 2%
[18]
  Emax: 77 ± 5%
[18]; h5HT2C EC50, Ca2+ mobilization
  EC50: 200 nM
[18]; h5HT2C pEC50 ± SEM, Ca2+ mobilization
  EC50: 219 nM
[19]; SC
  activity in the HTR assay (active / inactive): None of the phenethylamines or tryptamines with 4-substituted N-benzyl groups, 4b, 4e, 5c, or 5f, was active

## COc1cccc(CNCCc2c[nH]c3ccc(OC)cc23)c1 [Compound 5b, N-(3-Methoxybenzyl)-2-(5-methoxy-1H-indol-3-yl)ethan-1-amine]
[1]
  Ki: 7.76 nM
[2]
  Ki: 1.05 nM
[3]
  Ki: 38 nM
[4]
  Ki: 5.89 nM
[5]; 5-HT2B affinity
  Ki: 2.5 nM
[6]; 5-HT1A affinity
  Ki: 335 nM
[6]; 5-HT1A pKi ± SEM
  Ki: 331 nM
[7]; 5-HT1B affinity
  Ki: > 10000 nM
[8]
  Ki: 334 nM
[9]
  Ki: > 10000 nM
[10]
  Ki: > 10000 nM
[11]; 5-ht5a affinity
  Ki: 1260 nM
[12]
  Ki: 25 nM
[13]; 5-HT7 affinity
  Ki: 406 nM
[14]; [20]
  EC50: 34 nM
[14]
  Emax: 52.2 ± 0.9%
[15]
  EC50: 6.2 nM
  Emax: 70 ± 1%
[16]
  Emax: ≤ 15%
[16]; [21]
  EC50: 949 nM
[17]; [24]
  EC50: 168 nM
[17]; [23]
  EC50: 166 nM
[17]
  Emax: 102 ± 2%
[18]
  Emax: 65 ± 5%
[18]; h5HT2C EC50, Ca2+ mobilization
  EC50: 178 nM
[19]; HTR counts, SC
  max counts: 9.2
[19]; Mus musculus, sc, read-out: ED50 mg/kg (95% CI), mouse head twitch
  ED50: 3.28 mg/kg
[19]; SC
  activity in the HTR assay (active / inactive): active
[19]; SC, mouse head twitch
  active doses: 10 mg/kg
  magnitude of peak effect × vehicle: 3.7 × vehicle
  maximally effective dose: 10 mg/kg
[19]; biphasic bell-shaped dose–response, 30 mg/kg SC
  HTR at 30 mg/kg: inactive

## COc1ccc(CNCCc2c[nH]c3ccc(OC)cc23)cc1 [Compound 5c, N-(4-Methoxybenzyl)-2-(5-methoxy-1H-indol-3-yl)ethan-1-amine]
[1]
  Ki: 69.2 nM
[2]
  Ki: 10.5 nM
[3]
  Ki: 126 nM
[4]
  Ki: 14.1 nM
[5]; 5-HT2B affinity
  Ki: 33 nM
[5]; 5-HT2B pKi ± SEM
  Ki: 32.4 nM
[6]; 5-HT1A affinity
  Ki: 76 nM
[7]; 5-HT1B affinity
  Ki: 1060 nM
[8]
  Ki: 161 nM
[9]
  Ki: > 10000 nM
[10]
  Ki: > 10000 nM
[11]; 5-ht5a affinity
  Ki: 2390 nM
[12]
  Ki: 353 nM
[13]; 5-HT7 affinity
  Ki: 37 nM
[13]; 5-HT7 pKi ± SEM
  Ki: 36.3 nM
[14]; [20]
  EC50: 190 nM
[14]
  Emax: 75 ± 1.3%
[15]
  EC50: 42 nM
  Emax: 84.1 ± 1.3%
[16]
  Emax: 81 ± 1%
[16]; [22]
  EC50: 22.9 nM
[17]; [23]
  EC50: 18.6 nM
[17]
  Emax: 102 ± 2%
[18]
  Emax: 112 ± 5%
[18]; h5HT2C EC50, Ca2+ mobilization
  EC50: 75.1 nM
[19]; SC
  activity in the HTR assay (active / inactive): None of the phenethylamines or tryptamines with 4-substituted N-benzyl groups, 4b, 4e, 5c, or 5f, was active
